According to patent US20110059967A1, “THERAPEUTIC COMPOUNDS” (Allergan Inc., priority 2008, published 2011):
“Also recorded” adds a separate entry of the source.

Tested on: lashes and adjacent hairs
Assay: Observation of lashes and adjacent hairs in glaucoma patients treated with bimatoprost in only one eye
Assay type: in vivo
Conditions: glaucoma patients taking bimatoprost in only one eye
Source text: In the course of treating patients having glaucoma, treatment may only be appropriate in one eye. […] The lash appearance on the lids of the treated eyes would have appeared quite attractive if it represented a bilateral phenomenon. As a result of its asymmetric nature, the long lash'es on one side could be construed as disturbing from a cosmetic standpoint. A systemic examination was preformed as a result of the asymmetric phenomenon. It soon became apparent that this altered appearance was not an isolated finding. […] Definite differences could be identified to varying degrees in the lashes and adjacent hairs of all patients who were taking the drug on a unilateral basis for longer than 6 months.
The changes in the lashes were apparent on gross inspection in several patients once attention was focused on the issue. In those with light colored hair and lashes, the differences were only seen easily with the aid of the high magnification and lighting capabilities of the slit lamp biomicroscope. In the course of glaucoma follow-up examination, attention is generally immediately focused on the eye itself. As a result of the high power magnification needed only one eye is seen at a time and the eye is seen at a high enough power that the lashes are not in focus. […]

CCNC(=O)CCC/C=C\C[C@@H]1[C@@H](/C=C/[C@@H](O)CCc2ccccc2)[C@H](O)C[C@@H]1O [bimatoprost]
hair growth: lashes of the treated eye compared with the non-treated eye: longer, thicker, and fuller; also recorded: hair growth is stimulated
